# PubChem BioAssay AID2060897 (Molecular Pharmacology Branch, DTP, NCI, 2025)
# System: 966289-007-R4-J1-PDC complex spheroid viability
# Assay: Anticancer human tumor 966289-007-R4-J1-PDC patient-derived pancreatic adenocarcinoma cell line growth inhibition [RAS]
# Settings: for IC50: curve of first compound; for viability, T/C: stronger effect = lower value
# How it was run: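 Tumour cells grown as complex spheroids with HUVEC endothelial cells and mesenchymal stem cells, treated with RAS pathway inhibitor combinations. Each agent spans half-log steps from near clinical Cmax, or 10 microM where Cmax is unknown.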
# 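Further: spheroids exposed to agents for one week before readout.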
# 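Wherever viability, T/C is given: percent viability relative to DMSO vehicle control wells as 100%.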
structure (smiles),measurement,setting,value
O=C(c1ccc(F)c(F)c1Nc1ccc(I)cc1F)N1CC(O)([C@@H]2CCCCN2)C1 + C=CC(=O)N1CCN(c2nc(OCC3CCCN3C)nc3c(F)c(-c4nc(N)cc(C)c4C(F)(F)F)c(Cl)cc23)C(C)C1,IC50,second compound 0.00316 µM,509 nM
same,IC50,second compound 0.01 µM,618 nM
same,IC50,second compound 0.0316 µM,648 nM
same,IC50,second compound 0.1 µM,570 nM
same,IC50,second compound 0.316 µM,740 nM
same,IC50,second compound 1 µM,694 nM
same,"viability, T/C","second compound 0.00316 µM, first compound 0.00316 µM",98.1%
same,"viability, T/C","second compound 0.00316 µM, first compound 0.01 µM",87.5%
same,"viability, T/C","second compound 0.00316 µM, first compound 0.0316 µM",77.2%
same,"viability, T/C","second compound 0.00316 µM, first compound 0.1 µM",72.3%
same,"viability, T/C","second compound 0.00316 µM, first compound 0.316 µM",63.5%
same,"viability, T/C","second compound 0.00316 µM, first compound 1 µM",36.4%
same,"viability, T/C","second compound 0.01 µM, first compound 0.00316 µM",78.5%
same,"viability, T/C","second compound 0.01 µM, first compound 0.01 µM",80.9%
same,"viability, T/C","second compound 0.01 µM, first compound 0.0316 µM",71.2%
same,"viability, T/C","second compound 0.01 µM, first compound 0.1 µM",75.8%
same,"viability, T/C","second compound 0.01 µM, first compound 0.316 µM",62.9%
same,"viability, T/C","second compound 0.01 µM, first compound 1 µM",40.3%
same,"viability, T/C","second compound 0.0316 µM, first compound 0.00316 µM",94.6%
same,"viability, T/C","second compound 0.0316 µM, first compound 0.01 µM",75.3%
same,"viability, T/C","second compound 0.0316 µM, first compound 0.0316 µM",76.3%
same,"viability, T/C","second compound 0.0316 µM, first compound 0.1 µM",70.3%
same,"viability, T/C","second compound 0.0316 µM, first compound 0.316 µM",66.5%
same,"viability, T/C","second compound 0.0316 µM, first compound 1 µM",40.8%
same,"viability, T/C","second compound 0.1 µM, first compound 0.00316 µM",95.9%
same,"viability, T/C","second compound 0.1 µM, first compound 0.01 µM",70.3%
same,"viability, T/C","second compound 0.1 µM, first compound 0.0316 µM",85.1%
same,"viability, T/C","second compound 0.1 µM, first compound 0.1 µM",72.2%
same,"viability, T/C","second compound 0.1 µM, first compound 0.316 µM",63.5%
same,"viability, T/C","second compound 0.1 µM, first compound 1 µM",38.2%
same,"viability, T/C","second compound 0.316 µM, first compound 0.00316 µM",84%
same,"viability, T/C","second compound 0.316 µM, first compound 0.01 µM",82.6%
same,"viability, T/C","second compound 0.316 µM, first compound 0.0316 µM",78.6%
same,"viability, T/C","second compound 0.316 µM, first compound 0.1 µM",76.2%
same,"viability, T/C","second compound 0.316 µM, first compound 0.316 µM",68%
same,"viability, T/C","second compound 0.316 µM, first compound 1 µM",43.6%
same,"viability, T/C","second compound 1 µM, first compound 0.00316 µM",70.2%
same,"viability, T/C","second compound 1 µM, first compound 0.01 µM",71.1%
same,"viability, T/C","second compound 1 µM, first compound 0.0316 µM",71.3%
same,"viability, T/C","second compound 1 µM, first compound 0.1 µM",77.2%
same,"viability, T/C","second compound 1 µM, first compound 0.316 µM",63.5%
same,"viability, T/C","second compound 1 µM, first compound 1 µM",42.7%
CC(Nc1ccc2c(c1)OCCn1cc(N3C(=O)OCC3C(F)F)nc1-2)C(N)=O (centres undefined) + CCn1c(-c2cccnc2C(C)OC)c2c3cc(ccc31)N1CCOC(CC(NC(=O)C(C(C)C)N(C)C(=O)C3(F)CCN(C(=O)C#CC(C)(C)N(C)C)CC3)C(=O)N3CCCC(N3)C(=O)OCC(C)(C)C2)C1,IC50,second compound 0.000949 µM,> 10000 nM
same,IC50,second compound 0.003 µM,> 10000 nM
same,IC50,second compound 0.00949 µM,> 10000 nM
same,IC50,second compound 0.03 µM,> 10000 nM
same,IC50,second compound 0.0949 µM,> 10000 nM
same,IC50,second compound 0.3 µM,> 10000 nM
same,"viability, T/C","second compound 0.000949 µM, first compound 0.0316 µM",97.2%
same,"viability, T/C","second compound 0.000949 µM, first compound 0.1 µM",114%
same,"viability, T/C","second compound 0.000949 µM, first compound 0.316 µM",121%
same,"viability, T/C","second compound 0.000949 µM, first compound 1 µM",77.1%
same,"viability, T/C","second compound 0.000949 µM, first compound 3.16 µM",90.5%
same,"viability, T/C","second compound 0.000949 µM, first compound 10 µM",74.9%
same,"viability, T/C","second compound 0.003 µM, first compound 0.0316 µM",93.7%
same,"viability, T/C","second compound 0.003 µM, first compound 0.1 µM",99.9%
same,"viability, T/C","second compound 0.003 µM, first compound 0.316 µM",111%
same,"viability, T/C","second compound 0.003 µM, first compound 1 µM",83.4%
same,"viability, T/C","second compound 0.003 µM, first compound 3.16 µM",78.2%
same,"viability, T/C","second compound 0.003 µM, first compound 10 µM",86.1%
same,"viability, T/C","second compound 0.00949 µM, first compound 0.0316 µM",73.8%
same,"viability, T/C","second compound 0.00949 µM, first compound 0.1 µM",105%
same,"viability, T/C","second compound 0.00949 µM, first compound 0.316 µM",111%
same,"viability, T/C","second compound 0.00949 µM, first compound 1 µM",92.6%
same,"viability, T/C","second compound 0.00949 µM, first compound 3.16 µM",103%
same,"viability, T/C","second compound 0.00949 µM, first compound 10 µM",77.3%
same,"viability, T/C","second compound 0.03 µM, first compound 0.0316 µM",60.7%
same,"viability, T/C","second compound 0.03 µM, first compound 0.1 µM",94.2%
same,"viability, T/C","second compound 0.03 µM, first compound 0.316 µM",106%
same,"viability, T/C","second compound 0.03 µM, first compound 1 µM",82.3%
same,"viability, T/C","second compound 0.03 µM, first compound 3.16 µM",114%
same,"viability, T/C","second compound 0.03 µM, first compound 10 µM",88.5%
same,"viability, T/C","second compound 0.0949 µM, first compound 0.0316 µM",69.8%
same,"viability, T/C","second compound 0.0949 µM, first compound 0.1 µM",91.7%
same,"viability, T/C","second compound 0.0949 µM, first compound 0.316 µM",105%
same,"viability, T/C","second compound 0.0949 µM, first compound 1 µM",108%
same,"viability, T/C","second compound 0.0949 µM, first compound 3.16 µM",105%
same,"viability, T/C","second compound 0.0949 µM, first compound 10 µM",82%
same,"viability, T/C","second compound 0.3 µM, first compound 0.0316 µM",101%
same,"viability, T/C","second compound 0.3 µM, first compound 0.1 µM",94.8%
same,"viability, T/C","second compound 0.3 µM, first compound 0.316 µM",124%
same,"viability, T/C","second compound 0.3 µM, first compound 1 µM",97%
same,"viability, T/C","second compound 0.3 µM, first compound 3.16 µM",135%
same,"viability, T/C","second compound 0.3 µM, first compound 10 µM",73.8%
